System: LPS-primed monocytes
Experiment: Surface molecule expression on LPS-primed human monocytes (flow cytometry)
Assay type: cell-based
Conditions: LPS 100 ng/ml, 18 hr, 10 μM compound vs DMSO control; flow cytometry MFI
Protocol: Human monocytes were stimulated with LPS (100 ng/ml) in the presence of either an isotype control IgG, or anti-CD11b antibody (ICRF44) for 18 hr. The cells were harvested and HLA-DR, PD-L1, CD80 and CD86 molecules were analyzed using flow cytometry. Surface molecule expression is presented as the MFI. Values are presented as the mean±SEM from 3 independent experiments.
FIGS. 2 A and B show the effect of cell adhesion to fibrinogen and reduction of PD-L1 expression by binding CD11b, respectively. […] 25000 of K562/CD11b cells adhered to the bottom of fibrinogen (20 μg/ml)-coated wells in the presence of 10 μM ML-C19-A or DMSO at 37° C. for 20 min. The results were quantitated by luciferase-based CellTiter-Glo (Promega CO.). Each bar represents mean±SEM of triplicate determinations from a representative experiment. […] Human monocytes were stimulated with LPS (100 ng/ml) in the presence of either DMSO control or 10 μM of ML-C19-A for 18 hr. The cells were harvested and PD-L1 molecules were analyzed using flow cytometry. Surface molecule expression is presented as the MFI. Values are presented as the mean±SEM from 10 independent experiments.
Primed-monocytes were incubated in the presence of either an isotype control IgG, anti-CD11b antibody (ICRF44) or humanized anti-CD11b antibodies for 18 hr. The cells were harvested and PD-L1 expression on monocytes was analyzed using flow cytometry. […]

NS(=O)(=O)c1ccc(N2C(=O)c3cccc4cccc(c34)C2=O)cc1 [ML-C19-A]
PD-L1 expression in LPS-primed monocytes: inhibitory

— US11685785B2, “Methods and antibodies for modulation of immunoresponse” (Ascendo Biotechnology, Inc., priority 2015, dated 2023)
